In ChEMBL document CHEMBL1649312, “Absence of association between piperaquine in vitro responses and polymorphisms in the pfcrt, pfmdr1, pfmrp, and pfnhe genes in Plasmodium falciparum” (Antimicrob Agents Chemother, 2010) one finds IC50 data, which are given here for two molecules.

Holding throughout (assay type): functional, organism-based
Experiment [1] has as its system Plasmodium falciparum. Description: Antimalarial activity against Plasmodium falciparum IMT 10354 harboring Ppcrt M74I, N75E, K76T, A220S mutant gene, Pmdr1 D1246Y mutant gene assessed as incorporation of [3]H hypoxanthine after 48 hrs by scintillation counter. The conditions noted are these: IMT 10354, 48 h.
Experiment [2] relates to Plasmodium falciparum. Description: Antimalarial activity against Plasmodium falciparum IMT 16332 harboring Ppcrt M74I, N75E, K76T, A220S, Q271E mutant gene, Pmdr1 N86Y mutant gene assessed as incorporation of [3]H hypoxanthine after 48 hrs by scintillation counter. Conditions: IMT 16332, 48 h.
The subject of experiment [3] is Plasmodium falciparum. Description: Antimalarial activity against Plasmodium falciparum 3D7 harboring Ppcrt I371R mutant gene and Pfnhe-1 ms4760 microsatellite mutant assessed as incorporation of [3]H hypoxanthine after 48 hrs by scintillation counter. The conditions noted are these: 3D7, 48 h.
For experiment [4], the system named is Plasmodium falciparum. Put plainly: Antimalarial activity against Plasmodium falciparum D6 assessed as inhibition of [3H] incorporation after 48 hrs by scintillation counter.
The subject of experiment [5] is Plasmodium falciparum. Description: Antimalarial activity against Plasmodium falciparum IMT 9881 assessed as inhibition of [3H] incorporation after 48 hrs by scintillation counter.
Experiment [6] concerns Plasmodium falciparum. Put plainly: Antimalarial activity against Plasmodium falciparum IMT 10336 assessed as inhibition of [3H] incorporation after 48 hrs by scintillation counter.
Experiment [7] deals with Plasmodium falciparum. Description: Antimalarial activity against Plasmodium falciparum IMT 10500 assessed as inhibition of [3H] incorporation after 48 hrs by scintillation counter.
For experiment [8], the system named is Plasmodium falciparum. Description: Antimalarial activity against Plasmodium falciparum IMT Vol assessed as inhibition of [3H] incorporation after 48 hrs by scintillation counter.
Experiment [9] has as its system Plasmodium falciparum. Put plainly: Antimalarial activity against Plasmodium falciparum FCM29 harboring Ppcrt M74I, N75E, K76T, A220S, Q271E, N326S and I356T mutant gene, Pmdr1 N86Y mutant gene and Pfmrp H191Y and S437A mutant gene assessed as incorporation of [3]H hypoxanthine after 48 hrs by scintillation counter. The conditions noted are these: FCM29, 48 h.
In experiment [10] the test system is Plasmodium falciparum. Description: Antimalarial activity against Plasmodium falciparum FCR3 harboring Ppcrt M74I, N75E, K76T, A220S, Q271E, N326S and I356T mutant gene, Pmdr1 N86Y mutant gene and Pfmrp H191Y and S437A mutant gene assessed as incorporation of [3]H hypoxanthine after 48 hrs by scintillation counter. Conditions: FCR3, 48 h.
In experiment [11] the test system is Plasmodium falciparum. Put plainly: Antimalarial activity against Plasmodium falciparum PA harboring Ppcrt M74I, N75E, K76T, A220S, Q271E, N326S and I356T mutant gene, Pmdr1 N86Y mutant gene and Pfmrp H191Y and S437A mutant gene assessed as incorporation of [3]H hypoxanthine after 48 hrs by scintillation counter.
In experiment [12] the test system is Plasmodium falciparum. Put plainly: Antimalarial activity against Plasmodium falciparum IMT Bres harboring Ppcrt M74I, N75E, K76T, A220S, Q271E, N326S and I356T mutant gene, Pmdr1 N86Y mutant gene and Pfmrp H191Y and S437A mutant gene assessed as incorporation of [3]H hypoxanthine after 48 hrs by scintillation counter.
The test system of experiment [13] is Plasmodium falciparum. Put plainly: Antimalarial activity against Plasmodium falciparum HB3 assessed as inhibition of [3H] incorporation after 48 hrs by scintillation counter.
In experiment [14] the test system is Plasmodium falciparum. Description: Antimalarial activity against Plasmodium falciparum 106/1 assessed as inhibition of [3H] incorporation after 48 hrs by scintillation counter.
Experiment [15] relates to Plasmodium falciparum. Put plainly: Antimalarial activity against Plasmodium falciparum IMT Guy assessed as inhibition of [3H] incorporation after 48 hrs by scintillation counter.

pIC50: −log10 of the molar value.

In general, pIC50 refers to the IC50 on a negative log10 scale, so that one unit is a factor of ten.

In the case of `C[C@H]1[C@@H](O)O[C@@H]2O[C@@]3(C)CC[C@H]4[C@H](C)CC[C@@H]1[C@@]24OO3` [ARTENIMOL], the negative-log IC50 (pIC50) in the experiment on Plasmodium falciparum [1] is 9.40; in the experiment with Plasmodium falciparum [2], 8.96; in the experiment with Plasmodium falciparum [3] it was 8.55; in the experiment on Plasmodium falciparum [4], 8.85; in the experiment with Plasmodium falciparum [5], 8.46; with Plasmodium falciparum [6], 8.80. Moreover, the pIC50 is 8.48 in the experiment with Plasmodium falciparum [7]; 8.92 with Plasmodium falciparum [8]; 8.89 in the experiment on Plasmodium falciparum [9]; 8.80 with Plasmodium falciparum [10]; 8.85 in the experiment on Plasmodium falciparum [11]; 8.85 with Plasmodium falciparum [12].

Consider `Clc1ccc2c(N3CCN(CCCN4CCN(c5ccnc6cc(Cl)ccc56)CC4)CC3)ccnc2c1` [PIPERAQUINE], for which the pIC50 in the experiment on Plasmodium falciparum [1] was 7.54; in the experiment on Plasmodium falciparum [2], 7.32; in the experiment with Plasmodium falciparum [3], 7.24; in the experiment on Plasmodium falciparum [4], 7.24; in the experiment on Plasmodium falciparum [13], 7.26; in the experiment with Plasmodium falciparum [14] it was 7.16. Also, the negative-log IC50 (pIC50) with Plasmodium falciparum [15] was 7.20; in the experiment on Plasmodium falciparum [6], 7.13; in the experiment with Plasmodium falciparum [7], 7.09; in the experiment with Plasmodium falciparum [9], 7.01; in the experiment on Plasmodium falciparum [10], 7.28; in the experiment with Plasmodium falciparum [11], 7.10. The pIC50 with Plasmodium falciparum [12] is 7.34.
